According to patent publication US11845760B2, “PRMT5 inhibitors” (AMGEN INC., priority 2020, dated 2023):

Assays:
HCT116 WT cells = experiment: HCT116 WT cell line proliferation (CellTiter-Glo cell viability, 6 days); format: cell-based; details: Homo sapiens, HCT-116, 144 h, HCT116 WT (parent) cells, 6 days of treatment, CellTiter-Glo cell viability; read-out: HCT-116 WT IC50
Summary of the method: (§1)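 Isogenic HCT116 pair (parent and MTAP double-allele knockout) in RPMI 1640 + 10% FBS, exposed 6 days to compound: 8–9-point 1:3 dilutions from 1 or 10 μM top, or 22-point 1:2 dilutions from 10 or 50 μM top. CellTiter-Glo luminescence; IC50 from sigmoidal fit (Hill −1) or 4-parameter logistic.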

HCT116 MTAP null cells = experiment: HCT116 MTAP null cell line proliferation (CellTiter-Glo cell viability, 6 days); format: cell-based; details: HCT116-MTAP null, 144 h, HCT116 MTAP null cells, 6 days of treatment, CellTiter-Glo cell viability; read-out: HCT-116 MTAP null IC50
Summary of the method: as §1

IC50 (HCT116 WT cells) | IC50 (HCT116 MTAP null cells) | Compound
> 10000 nM | > 1000 nM | C[C@@H]1CN(C(=O)c2ccc3nc(N)c4c(c3c2)COC4)[C@H](c2ccc(C(F)(F)F)cn2)CO1 (single isomer, unassigned) [Example 574]
> 10000 nM | 4060 nM | C[C@@H]1OCc2c1c(N)nc1cnc(C(=O)N3CCOC[C@H]3c3ccc(F)c(C(F)(F)F)c3)cc21 (racemic) [Example 355, ((3S)-4-amino-3-methyl-1,3-dihydrofuro[3,4-c][1,7]naphthyridin-8-yl)((3R)-3-(4-fluoro-3-(trifluoromethyl)phenyl)-4-morpholinyl)methanone and ((3S)-4-amino-3-methyl-1,3-dihydrofuro[3,4-c][1,7]naphthyridin-8-yl)((3S)-3-(4-fluoro-3-(trifluoromethyl)phenyl)-4-morpholinyl)methanone]
1980 nM | 49 nM | C[C@H]1OCc2c1c(N)nc1cnc(C(=O)N3CCOC[C@@H]3c3ccc(OC(F)(F)F)cc3)cc21 (single isomer, unassigned) [Example 619]
502 nM | 18 nM | Nc1nc2cc(Cl)c(C(=O)N3CCOC[C@@H]3c3ccc(C(F)(F)F)cc3)cc2c2c1COC2 [Example 529, (4-amino-7-chloro-1,3-dihydrofuro[3,4-c]quinolin-8-yl)((3S)-3-(4-(trifluoromethyl)phenyl)-4-morpholinyl)methanone]
150 nM | 6 nM | COc1ccc([C@H]2COC[C@@H](C)N2C(=O)c2cc3c(cc2F)nc(N)c2cnn(C)c23)nn1 [Example 551, (4-amino-7-fluoro-1-methyl-1H-pyrazolo[4,3-c]quinolin-8-yl)((3S,5R)-3-(6-methoxy-3-pyridazinyl)-5-methyl-4-morpholinyl)methanone]
5580 nM | 145 nM | CCOc1ccc([C@@H]2COC[C@H](C)N2C(=O)c2ccc3nc(N)c4c(c3c2)COC4)nn1 (racemic) [Example 319, (4-amino-1,3-dihydrofuro[3,4-c]quinolin-8-yl)((3R,5S)-3-(6-ethoxy-3-pyridazinyl)-5-methyl-4-morpholinyl)methanone and (4-amino-1,3-dihydrofuro[3,4-c]quinolin-8-yl)((3S,5R)-3-(6-ethoxy-3-pyridazinyl)-5-methyl-4-morpholinyl)methanone]
2080 nM | 30 nM | Cn1ncc2c(N)nc3ccc(C(=O)N4CCOC[C@@H]4c4ccc(C(F)(F)F)cc4)cc3c21 [Example 521, (4-amino-1-methyl-1H-pyrazolo[4,3-c]quinolin-8-yl)((3S)-3-(4-(trifluoromethyl)phenyl)-4-morpholinyl)methanone]
> 10000 nM | 2140 nM | CC(C)C[C@H]1COC[C@@H](c2ccc(C(F)(F)F)cc2)N1C(=O)c1cc2c3c(c(N)nc2cn1)COC3 (single isomer, unassigned) [Example 567]
> 10000 nM | 936 nM | Nc1nc2ccc(C(=O)N3CCOC[C@@H]3c3ccc(C(F)(F)F)nn3)cc2c2c1COC2 (single isomer, unassigned) [Example 593]
> 10000 nM | 873 nM | N#Cc1ccc([C@H]2COCCN2C(=O)c2ccc3nc(N)c4c(c3c2)COC4)nc1 (single isomer, unassigned) [Example 577]
2400 nM | 43 nM | CCOc1ccc([C@@H]2COC[C@H](C)N2C(=O)c2cc3c4c(c(N)nc3cc2F)COC4)nn1 (racemic) [Example 327, (4-amino-7-fluoro-1,3-dihydrofuro[3,4-c]quinolin-8-yl)((3R,5S)-3-(6-ethoxy-3-pyridazinyl)-5-methyl-4-morpholinyl)methanone and (4-amino-7-fluoro-1,3-dihydrofuro[3,4-c]quinolin-8-yl)((3S,5R)-3-(6-ethoxy-3-pyridazinyl)-5-methyl-4-morpholinyl)methanone]
215 nM | 13 nM | C[C@@H]1COC[C@H](c2ccc(C(F)(F)F)cc2)N1C(=O)c1cc2c(cc1F)nc(N)c1c2cnn1C [Example 531, (4-amino-7-fluoro-3-methyl-3H-pyrazolo[3,4-c]quinolin-8-yl)((3R,5S)-3-methyl-5-(4-(trifluoromethyl)phenyl)-4-morpholinyl)methanone]
> 10000 nM | > 1000 nM | Nc1nc2ccc(C(=O)N3CCOC[C@H]3c3ccc(C(F)(F)F)cc3)cc2c2ccsc12 (single isomer, unassigned) [Example 487]
13000 nM | 197 nM | C[C@H]1OCc2c1c(N)nc1ccc(C(=O)N3C[C@@H](c4ccccc4)[C@@H]4COCC[C@@H]43)cc21 [Example 399, ((3R)-4-amino-3-methyl-1,3-dihydrofuro[3,4-c]quinolin-8-yl)((3R,3aS,7aS)-3-phenylhexahydropyrano[4,3-b]pyrrol-1(4H)-yl)methanone]
> 10000 nM | > 1000 nM | Nc1nc2ccc(C(=O)N3CCOC[C@H]3c3ccc(C(F)(F)F)nc3)cc2c2c1COC2 (single isomer, unassigned) [Example 610]
5300 nM | 340 nM | Cn1ncc2c(N)nc3cc(F)c(C(=O)N4CC[C@H](Cc5ccc(C(F)(F)F)cc5)C4)cc3c21 (single isomer, unassigned) [Example 470]
21500 nM | 558 nM | Nc1nc2cnc(C(=O)N3CCOC[C@@H]3c3ccc(C(F)(F)F)nn3)cc2c2c1COC2 [Example 549, (4-amino-1,3-dihydrofuro[3,4-c][1,7]naphthyridin-8-yl)((3S)-3-(6-(trifluoromethyl)-3-pyridazinyl)-4-morpholinyl)methanone]
120 nM | 18 nM | C[C@@H]1COC[C@H](c2ccc(C(F)(F)F)cn2)N1C(=O)c1cc2c(cn1)nc(N)c1cnn(C)c12 [Example 520, (4-amino-1-methyl-1H-pyrazolo[4,3-c][1,7]naphthyridin-8-yl)((3R,5S)-3-methyl-5-(5-(trifluoromethyl)-2-pyridinyl)-4-morpholinyl)methanone]
